# Reference: publication PMC11415492 (Nature Communications, 2024)
# “And” between values parts separate entries of the source, which are not always exact repeats. Equal values may be shown once. “Also recorded” adds a separate entry of the source. Where a name gives a salt, the structure may show the parent alone.
# Key:
# male Fisher F-344 rats = settings: preclinical assays in rats; cited from earlier work
# mice = experiment: Open field test (locomotion, sedation); format: in vivo, mouse; set-up: unit not given here; settings: groups not marked Female
# Experimental: Mice were transferred to the testing room 30 min before the experiment to allow for acclimation. Body weight of each mouse was recorded. For experiments with antagonist, pre-treatment, the dosing and after application wait times were the same as for the tail-flick test. Mice were administered an ED50, ED80 or >ED95 doses of test compound (volume of injection 290–350 µL based on body weight). After injection, mice were returned to the home cage and allowed to rest for 30 min. Each mouse was then gently placed in the center of a clear Plexiglas arena (27.31 × 27.31 × 20.32 cm, Med Associates ENV-510) lit with dim light ( ~ 5 lux) and allowed to ambulate freely for 60 minutes. The locomotion of the mouse was tracked by infrared beams embedded along the X, Y, Z axes of the area and automatically recorded. Data was collected on Activity Monitor by Med Associates.
# Statistical analysis was performed using the unpaired t-test, two-tailed with Welch’s correction to analyze total locomotion and a two-way ANOVA with Šidák’s multiple comparison test for post hoc comparison to analyze locomotion across time bins.
# hSERT = biological target: T1, hSERT (Homo sapiens, UniProt P31645); experiment: hSERT inhibition assay (APP+ fluorescence uptake); format: cell-based
# T1 construct: expressed in transfected cells
# T1 sequence (P31645 whole entry): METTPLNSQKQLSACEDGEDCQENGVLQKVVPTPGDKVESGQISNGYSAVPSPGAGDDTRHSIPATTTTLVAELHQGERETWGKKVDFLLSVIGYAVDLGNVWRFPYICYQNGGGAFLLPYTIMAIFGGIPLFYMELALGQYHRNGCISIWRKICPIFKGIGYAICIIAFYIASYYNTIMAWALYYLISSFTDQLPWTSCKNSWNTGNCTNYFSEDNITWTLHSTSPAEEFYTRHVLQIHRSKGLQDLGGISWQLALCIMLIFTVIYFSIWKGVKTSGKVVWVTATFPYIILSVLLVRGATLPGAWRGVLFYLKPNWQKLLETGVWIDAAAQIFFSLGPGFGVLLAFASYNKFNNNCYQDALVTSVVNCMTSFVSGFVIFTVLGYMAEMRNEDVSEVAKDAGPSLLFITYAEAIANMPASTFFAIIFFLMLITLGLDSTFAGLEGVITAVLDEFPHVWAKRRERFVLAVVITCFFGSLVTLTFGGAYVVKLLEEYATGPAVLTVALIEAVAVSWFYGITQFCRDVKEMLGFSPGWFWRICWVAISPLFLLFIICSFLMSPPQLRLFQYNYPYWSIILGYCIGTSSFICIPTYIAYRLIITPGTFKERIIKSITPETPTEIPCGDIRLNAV
# Experimental: Stably transfected hSERT-HEK cellular cultures were maintained in Dulbecco’s Minimal Essential Medium (DMEM) with GlutaMAX (Gibco-Thermo Fisher Scientific, Waltham, MA) with the following additions: 10% (v/v) Fetal Bovine Serum (FBS, Atlanta Biologicals, Flowery Branch, GA), 100 U/mL Penicillin 10 μg/mL Streptomycin (Gibco-Thermo Fisher Scientific, Waltham, MA), and 500 μg/mL Geneticin (G418) (Sigma Aldrich, St. Louis, MO). Singly transfected cells were seeded at a density of 0.09 × 10^6 cells/well in poly-D-Lysine (Sigma Aldrich, St. Louis, MO) coated white solid-bottom 96-well plates (Greiner Bio-One, Kremsmünster, Austria). Cells were grown for 44 h in aqueous media at 37 °C under 5% CO2 atmosphere. […] A final solution of 120 μL of PBS was finally added to all corresponding wells for cell maintenance before measuring fluorescence uptake (BioTek H1MF plate reader (BioTek Instruments, Winooski, VT), APP+ excitation and emission wavelengths 436 and 500 nm). Recorded inhibitor values were first subtracted from vehicular values to quantify the respective fluorescence uptake. Data were analyzed using the dose-response-inhibitor nonlinear curve fitting model (log[inhibitor] vs response (four parameters) in Graphpad Prism 10 (Graphpad Software, La Jolla, CA).
# monkeys = settings: daily dosing prior to SA sessions (14 days); cited from earlier work
# hKOR [1] = biological target: T2, hKOR (Homo sapiens, UniProt P41145); experiment: KOR [35S]GTPγS agonist assay (commercial); format: biochemical; settings: Log [Drug]
# T2 construct: expressed in transfected cells; host or cells: HEK-293T, transient (PEI)
# T2 sequence (P41145 whole entry): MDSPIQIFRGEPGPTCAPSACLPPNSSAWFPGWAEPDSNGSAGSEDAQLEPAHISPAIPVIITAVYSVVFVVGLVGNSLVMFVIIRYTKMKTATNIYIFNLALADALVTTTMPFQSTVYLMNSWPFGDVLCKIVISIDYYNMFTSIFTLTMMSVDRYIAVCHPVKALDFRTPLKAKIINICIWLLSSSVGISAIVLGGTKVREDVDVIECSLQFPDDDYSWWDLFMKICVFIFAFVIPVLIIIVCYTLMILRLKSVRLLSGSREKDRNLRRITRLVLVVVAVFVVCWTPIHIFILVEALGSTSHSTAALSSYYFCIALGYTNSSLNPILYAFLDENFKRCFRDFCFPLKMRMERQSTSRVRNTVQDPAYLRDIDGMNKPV
# male rats = settings: cited from earlier work
# GDNF = GDNF expression studies (ELISA, brain regions); format: in vivo, rat; settings: aticaprant 1 mg/kg s.c. before oxa-noribogaine 40 mg/kg i.p.
# Experimental: One day or five days after drug administration, rats from these groups as well as non-treated controls were decapitated, brains removed and placed in a stainless-steel rat brain matrix. Coronal slices were taken and the ventral tegmental area (VTA), nucleus accumbens (NAc) and medial prefrontal cortex (mPFC) were dissected and immediately frozen on dry ice. Total protein was isolated from pulverized tissue (8–15 mg tissue per region was harvested from one subject) from these regions. GDNF contents were assayed using the BiosSensis GDNF, Rat, Rapid™ ELISA assay (Biosensis Pty Ltd, SA, Australia). Protease (Thermo Scientific, Rockford, IL), and phosphatase inhibitors (Cocktails 1 and 2, Sigma-Aldrich, St. Louis, MO) were added to the extraction buffers. Regardless of sample weight 230uL of RIPA buffer (Sigma; R0278) was added into each sample along with protease inhibitors. […] Protein concentrations were measured using the bicinchoninic acid protein assay kit (Pierce, Rockford, IL, USA) on a spectrophotometer (iD5, Molecular Devices, Sunnyvale, CA). […] In a separate cohort, we assessed the ability of the kappa antagonist aticaprant to attenuate the oxa-noribogaine induced increase in GDNF in the VTA and mPFC five days after administration. […] Data were analyzed by protein and region using one way ANOVA with Tukey’s multiple comparison test for post hoc comparison.
# hKOR [2] = biological target: T2, hKOR; experiment: G protein activation BRET assay; format: cell-based; settings: for EC50: HEK-293T, (95% CI); for % effect at 100 µM: n = 4
compound,measurement,setting,value
"COCC[C@H]1CC2CN3CCc4c([nH]c5ccccc45)[C@](C(=O)OC)(C2)[C@H]13 [18MC, 18-methoxycoronaridine]",effect on morphine intake,male Fisher F-344 rats,efficacy and duration of effect on morphine intake comparable to ibogaine and noribogaine
Cc1cc(C)cc([C@@H]2CCCN2Cc2ccc(Oc3ccc(C(N)=O)cc3F)cc2)c1 [Aticaprant (ATI)],"Open field total locomotion, individual animals (Fig. 3h source data)",mice,98.5549 and 70.7237 and 76.3275 and 70.7309 and 115.865 and 89.5078 and 98.6683 and 78.3135
"CN(C)CCCN1c2ccccc2CCc2ccccc21 [Imipramine, imipramine hydrochloride]",Emax,hSERT,100%
"C[C@H]1CNCCc2ccc(Cl)cc21 [Lorcaserin, lorcaserin]",suppression of cocaine SA,monkeys,the suppression effect completely dissipated as soon as the treatment ended
CC[C@H]1C[C@H]2C[C@H]3c4[nH]c5ccc(O)cc5c4CCN(C2)[C@@H]13 [NORIBO],"response, Fig. S5a concentration-response point",hKOR [1]; M = -4,66
same,"response, Fig. S5a concentration-response point",hKOR [1]; M = -4.5,55
same,"response, Fig. S5a concentration-response point",hKOR [1]; M = -5,39
same,"response, Fig. S5a concentration-response point",hKOR [1]; M = -5.5,20
same,"response, Fig. S5a concentration-response point",hKOR [1]; M = -6,7
same,"response, Fig. S5a concentration-response point",hKOR [1]; M = -6.5,2
COc1ccc2c3c([nH]c2c1)CCN(C)CC3 [TBG],effect on heroin SA,male rats,no lasting effect on heroin SA
Cc1cc(C)cc([C@@H]2CCCN2Cc2ccc(Oc3ccc(C(N)=O)cc3F)cc2)c1 [aticaprant],effect of pre-treatment on oxa-noribogaine-induced GDNF increase,GDNF,the induction of GDNF was blocked in both mPFC and VTA; also recorded: prevents the increase of GDNF expression in mPFC and VTA
Epi-oxa-ibogamine,EC50,hKOR [2],> 10 µM
same,% effect at 100 µM,hKOR [2],46%
Oxa-ibogamine,EC50,hKOR [2],> 10 µM
same,% effect at 100 µM,hKOR [2],56%
